Data: patent publication EP0919125A1, “Synergistic antimicrobial composition” (Calgon Corporation, priority 1997, dated 1999)
Where two headings read alike, the source gives them in different places.

Legend:
Type in all cases: cell-based
[1] = tested on: Pseudomonas aeruginosa (ATCC 15442); assay: Microtiter test of biocidal efficacy and synergy (Kull K value), Example II, bacterium
Protocol: (§1) The minimum inhibitory concentration (MIC) for each biocide combination against Ps. aeruginosa was determined. The MIC is the least amount of biocide needed to prevent growth in the well, with growth being defined as turbidity in the medium or a "pellet" of cells which came out of the medium and settled at the bottom of the well.
(§2) Additional plates were then subcultured from the MIC plates at 24 hours following biocide addition. Subculturing was done to determine the minimum biocidal concentration (MBC). The MBC is the lowest concentration of biocide that results in no growth after subculturing and subsequent incubation.
(§3) All of the microtiter plates including the MIC plates and the MBC plates were incubated for 24 hours at 37°C. Following the 24 hour incubation period, the presence or absence of growth in each well of the plates was determined. Growth in the microtiter plates was determined with a Dynatech MR-5000 microplate reader, available from Dynatech Laboratories, Chantilly, VA, USA, the use of which will be familiar to one having ordinary skill in the art. The presence or absence of growth in each well, along with the concentration of biocide in each well, was then used to determine the synergistic properties of the biocide combinations. The synergistic properties were evaluated by determining the Kull value, or K value. The method for calculating K value is well known to those skilled in the art. In this example, the K value was determined by the following formula: K=([DBDCB] In Combination)/([DBDCB] Alone)+([Triclosan] In Combination)/([Triclosan] Alone) [formula] where "[DBDCB]
A K value of less than 1 indicates synergy between the two biocides, a K value of greater than 1 indicates antagonism between the two biocides, and a K value equal to 1 indicates an additive effect of the two biocides.
Example I was repeated with the following differences. The DBDCB was tested at the following concentrations: 200, 100, 50, 25, 12.5, 6.25 and 3.125, with concentration given in ppm active. […]

[2] = tested on: Candida albicans (ATCC 10231); assay: Microtiter test of biocidal efficacy and synergy (Kull K value), Example II, yeast; conditions: ATCC10231, 120 h
Protocol: as §1, §2
as §3, with “The method for calculating K value is well known to those skilled in the art. In this example, the K value was determined by the following formula: K=([DBDCB] In Combination)/([DBDCB] Alone)+([Triclosan] In Combination)/([Triclosan] Alone) [formula] where "[DBDCB]” left out

[3] = tested on: Pseudomonas aeruginosa (ATCC 15442); assay: Microtiter test of biocidal efficacy and synergy (MIC/MBC, Kull K value), Example 1
Protocol: An 8X stock solution of DBDCB was prepared by dissolving about 3.2 grams (g) of 20% active DBDCB in about 4 ml of methanol and diluting the volume up to about 100 ml with deionized water. The DBDCB used in the examples was obtained from Calgon Corporation, Pittsburgh, PA, as Merguard® 1200. A Triclosan 4X stock solution was prepared by dissolving about 0.16g of about 99% active Triclosan in about 5 ml of methanol and diluting the volume up to about 100 ml with deionized water. The Triclosan was obtained from Ciba Geigy as Irgasan® DP 300.
Two microtiter plates were prepared for use in the example, each microtiter plate having 8 rows, A-H, and 12 columns, 1-12. The amount of each biocide in each well of the plates is depicted below.
The amount of biocide in each well of the second microtiter plate of each set was a follows: TABLE 2
as §1
Additional plates were then subcultured from the MIC plates at 24 hours following biocide addition. Subculturing was done to determine the minimum biocidal concentration (MBC). […]

Compound	MIC ([1]; DBDCB alone, inhibition of microbial growth, ppm active, 35°C for 24 hours) [ppm]	MIC ([1]; Pseudomonas aeruginosa, ATCC15442, 24 h, DBDCB alone, inhibition of microbial growth, ppm active, 35°C for 24 hours, read-out: [DBDCB] Alone) [µg/mL]	MIC ([2]; DBDCB alone, inhibition of microbial growth, ppm active, 30°C for 5 days, read-out: [DBDCB] Alone) [µg/mL]	MIC ([3]; ATCC15442, concentration of DBDCB which, used alone, resulted in inhibition of microbial growth, ppm active, 24 hours at 37°C, read-out: [DBDCB] Alone) [µg/mL]	MIC ([1]; Pseudomonas aeruginosa, ATCC15442, 24 h, read-out: [Triclosan] Alone) [µg/mL]	MIC ([2]; read-out: [Triclosan] Alone) [µg/mL]	MIC ([3]; ATCC15442, 24 h, read-out: [Triclosan] Alone) [µg/mL]
N#CCCC(Br)(C#N)CBr (stereo not shown) [DBDCB, 1,2-dibromo-2,4-dicyanobutane]	200	100	100	200	–	–	–
Oc1cc(Cl)ccc1Oc1ccc(Cl)cc1Cl [Triclosan, 2,4,4'-trichloro-2'-hydroxydiphenyl ether]	–	–	–	–	> 100	12.5	100
